{"source": "patent US9682965B2", "about": "“Fumagillol heterocyclic compounds and methods of making and using same” (Zafgen, Inc., priority 2015, dated 2017)", "note": "Where a name gives a salt, the structure may show the parent alone.", "data": [{"system": "Diet Induced Obese (DIO) C57BL/6 mice", "assay": "10 day DIO mouse model (body weight, food intake, hematology, blood chemistry)", "format": "in vivo", "details": "240 h; DIO mouse, 0.3 mpk sc, once a day for 10 days; read-out: DIO Mouse 10-day weight loss vs vehicle", "excerpt": "The objective of this study design was to investigate the efficacy of disclosed compounds in a 10 day DIO mouse model. Effects on body weight, food intake, hematology and blood chemistry were the primary readouts of this study design. […] Mice were fed Research Diets D12492 (60% Kcal fat, 20% Kcal carbohydrate and 20% protein) and provided water ad libitum. DIO mice were received and housed in the facility for approximately two weeks prior to the start of test article administration. On Day −4 or −3, mice were randomized into study groups based on body weight and body weights were continued to be recorded daily for the duration of the study. Daily food intake was assessed starting on Study Day −2 by weighing of the food with hopper together to avoid loss of food in transfer.\nCompounds were formulated into a 100% DMSO stock (at 9 mg/mL) prior to the start, and further diluted into the target working concentration using the vehicle of 10% DMSO in water. Prior to test article administration, starting on Day −3 a dosing acclimation occured with all animals receiving a subcutaneous injection of vehicle (10% DMSO) only for 3 days. Starting on Day 1, test compounds or vehicle were administered based on individual body weight, subcutaneously, once a day for 10 days. All mice were sacrificed on Day 11, 24 hours following the final dosing on Day 10. After sacrifice, whole blood was collected and analyzed for hematology and blood chemistry parameters.\nCompounds were tested vs. vehicle at various doses (1.0, 0.5, 0.3, 0.1, 0.03 mpk sc (mg per kg animal weight delivered subcutaneously), and the results are shown in Table 2 below.", "units": {"inhibition in vivo at 0.3 mg/kg": "%"}, "values": [{"smiles": "CO[C@@H]1[C@H](OC(=O)N2CC(CCN3CC[C@H](F)C3)C2)CC[C@]2(CO2)[C@H]1[C@@]1(C)O[C@@H]1CC=C(C)C", "note": "[Example 28, (3R,4S,5S,6R)-5-methoxy-4-((2R,3R)-2-methyl-3-(3-methylbut-2-enyl)oxiran-2-yl)-1-oxaspiro[2.5]octan-6-yl 3-(2-((S)-3-fluoropyrrolidin-1-yl)ethyl)azetidine-1-carboxylate]", "inhibition in vivo at 0.3 mg/kg": 12.7}, {"smiles": "CO[C@@H]1[C@H](OC(=O)N2CC(CCC3CCN(CC(F)F)CC3)C2)CC[C@]2(CO2)[C@H]1[C@@]1(C)O[C@@H]1CCC(C)C", "note": "[Example 128, (3R,4S,5S,6R)-4-((2R,3R)-3-isopentyl-2-methyloxiran-2-yl)-5-methoxy-1-oxaspiro[2.5]octan-6-yl 3-(2-(1-(2,2-difluoroethyl)piperidin-4-yl)ethyl)azetidine-1-carboxylate]", "inhibition in vivo at 0.3 mg/kg": 15.2}, {"smiles": "CO[C@@H]1[C@H](OC(=O)N2CC(CCN3C4CCC3CC4)C2)CC[C@]2(CO2)[C@H]1[C@@]1(C)O[C@@H]1CC=C(C)C", "note": "[Example 32, (3R,4S,5S,6R)-5-methoxy-4-((2R,3R)-2-methyl-3-(3-methylbut-2-enyl)oxiran-2-yl)-1-oxaspiro[2.5]octan-6-yl 3-(2-((1S,4S)-7-azabicyclo[2.2.1]heptan-7-yl)ethyl)azetidine-1-carboxylate]", "inhibition in vivo at 0.3 mg/kg": 0.5}, {"smiles": "CO[C@@H]1[C@H](OC(=O)N2CC(CCN3CC(C)(C(=O)N(C)C)C3)C2)CC[C@]2(CO2)[C@H]1[C@@]1(C)O[C@@H]1CC=C(C)C", "note": "[Example 20, (3R,4S,5S,6R)-5-methoxy-4-((2R,3R)-2-methyl-3-(3-methylbut-2-enyl)oxiran-2-yl)-1-oxaspiro[2.5]octan-6-yl 3-(2-(3-(dimethylcarbamoyl)-3-methylazetidin-1-yl)ethyl)azetidine-1-carboxylate]", "inhibition in vivo at 0.3 mg/kg": 2.1}, {"smiles": "CO[C@@H]1[C@H](OC(=O)N2CC(CCN3CC[C@@H](F)C3)C2)CC[C@]2(CO2)[C@H]1[C@@]1(C)O[C@@H]1CC=C(C)C", "note": "[Example 27, (3R,4S,5S,6R)-5-methoxy-4-((2R,3R)-2-methyl-3-(3-methylbut-2-enyl)oxiran-2-yl)-1-oxaspiro[2.5]octan-6-yl 3-(2-((R)-3-fluoropyrrolidin-1-yl)ethyl)azetidine-1-carboxylate]", "inhibition in vivo at 0.3 mg/kg": 13.3}, {"smiles": "CO[C@@H]1[C@H](OC(=O)N2CC(CCN3CCC(F)(F)CC3)C2)CC[C@]2(CO2)[C@H]1[C@@]1(C)O[C@@H]1CC=C(C)C", "note": "[Example 13, (3R,4S,5S,6R)-5-methoxy-4-((2R,3R)-2-methyl-3-(3-methylbut-2-enyl)oxiran-2-yl)-1-oxaspiro[2.5]octan-6-yl 3-(2-(4,4-difluoropiperidin-1-yl)ethyl)azetidine-1-carboxylate]", "inhibition in vivo at 0.3 mg/kg": 18.2}, {"smiles": "CCN(CC)C[C@H]1CCN(C(=O)O[C@@H]2CC[C@]3(CO3)[C@@H]([C@@]3(C)O[C@@H]3CC=C(C)C)[C@@H]2OC)C1", "note": "[Example 38, (R)-((3R,4S,5S,6R)-5-methoxy-4-((2R,3R)-2-methyl-3-(3-methylbut-2-enyl)oxiran-2-yl)-1-oxaspiro[2.5]octan-6-yl) 3-((diethylamino)methyl)pyrrolidine-1-carboxylate formate]", "inhibition in vivo at 0.3 mg/kg": 6.7}, {"smiles": "CCNC(=O)OC1CN(C(=O)O[C@@H]2CC[C@]3(CO3)[C@@H]([C@@]3(C)O[C@@H]3CC=C(C)C)[C@@H]2OC)C1", "note": "[Example 75, (3R,4S,5S,6R)-5-methoxy-4-((2R,3R)-2-methyl-3-(3-methylbut-2-enyl)oxiran-2-yl)-1-oxaspiro[2.5]octan-6-yl 3-(ethylcarbamoyloxy)azetidine-1-carboxylate]", "inhibition in vivo at 0.3 mg/kg": 12.8}, {"smiles": "CO[C@@H]1[C@H](OC(=O)N2CC(CCN3[C@@H]4CC[C@H]3COC4)C2)CC[C@]2(CO2)[C@H]1[C@@]1(C)O[C@@H]1CC=C(C)C", "note": "[Example 31, (3R,4S,5S,6R)-5-methoxy-4-((2R,3R)-2-methyl-3-(3-methylbut-2-enyl)oxiran-2-yl)-1-oxaspiro[2.5]octan-6-yl 3-(2-((1R,5S)-3-oxa-8-azabicyclo[3.2.1]octan-8-yl)ethyl)azetidine-1-carboxylate]", "inhibition in vivo at 0.3 mg/kg": 4.2}, {"smiles": "CO[C@@H]1CCN(CCC2CN(C(=O)O[C@@H]3CC[C@]4(CO4)[C@@H]([C@@]4(C)O[C@@H]4CC=C(C)C)[C@@H]3OC)C2)C1", "note": "[Example 26, (3R,4S,5S,6R)-5-methoxy-4-((2R,3R)-2-methyl-3-(3-methylbut-2-enyl)oxiran-2-yl)-1-oxaspiro[2.5]octan-6-yl 3-(2-((R)-3-methoxypyrrolidin-1-yl)ethyl)azetidine-1-carboxylate]", "inhibition in vivo at 0.3 mg/kg": 4.1}, {"smiles": "CO[C@@H]1[C@H](OC(=O)N2CC(CCC(=O)NCCN3CCOCC3)C2)CC[C@]2(CO2)[C@H]1[C@@]1(C)O[C@@H]1CC=C(C)C", "note": "[Example 67, (3R,4S,5S,6R)-5-methoxy-4-((2R,3R)-2-methyl-3-(3-methylbut-2-enyl)oxiran-2-yl)-1-oxaspiro[2.5]octan-6-yl 3-(3-(2-morpholinoethylamino)-3-oxopropyl)azetidine-1-carboxylate]", "inhibition in vivo at 0.3 mg/kg": 2.8}, {"smiles": "CO[C@@H]1[C@H](OC(=O)N2CC(CCN3CCN(C)C(=O)C3)C2)CC[C@]2(CO2)[C@H]1[C@@]1(C)O[C@@H]1CC=C(C)C", "note": "[Example 11, (3R,4S,5S,6R)-5-methoxy-4-((2R,3R)-2-methyl-3-(3-methylbut-2-enyl)oxiran-2-yl)-1-oxaspiro[2.5]octan-6-yl 3-(2-(4-methyl-3-oxopiperazin-1-yl)ethyl)azetidine-1-carboxylate formate]", "inhibition in vivo at 0.3 mg/kg": 2}, {"smiles": "CO[C@@H]1[C@H](OC(=O)N2CC(CCC3CCN(C)CC3)C2)CC[C@]2(CO2)[C@H]1[C@@]1(C)O[C@@H]1CC=C(C)C", "note": "[Example 90, (3R,4S,5S,6R)-5-methoxy-4-((2R,3R)-2-methyl-3-(3-methylbut-2-enyl)oxiran-2-yl)-1-oxaspiro[2.5]octan-6-yl 3-(2-(1-methylpiperidin-4-yl)ethyl)azetidine-1-carboxylate formate]", "inhibition in vivo at 0.3 mg/kg": 13.5}, {"smiles": "CO[C@@H]1[C@H](OC(=O)N2CC(OC(=O)NC(C)C)C2)CC[C@]2(CO2)[C@H]1[C@@]1(C)O[C@@H]1CC=C(C)C", "note": "[Example 76, (3R,4S,5S,6R)-5-methoxy-4-((2R,3R)-2-methyl-3-(3-methylbut-2-enyl)oxiran-2-yl)-1-oxaspiro[2.5]octan-6-yl 3-(isopropylcarbamoyloxy)azetidine-1-carboxylate]", "inhibition in vivo at 0.3 mg/kg": 15.4}, {"smiles": "CCN(CC)CC[C@@H]1CCCN1C(=O)O[C@@H]1CC[C@]2(CO2)[C@@H]([C@@]2(C)O[C@@H]2CC=C(C)C)[C@@H]1OC", "note": "[Example 51, (S)-((3R,4S,5S,6R)-5-methoxy-4-((2R,3R)-2-methyl-3-(3-methylbut-2-enyl)oxiran-2-yl)-1-oxaspiro[2.5]octan-6-yl) 2-(2-(diethylamino)ethyl)pyrrolidine-1-carboxylate formate]", "inhibition in vivo at 0.3 mg/kg": 4.3}, {"smiles": "CO[C@@H]1[C@H](OC(=O)N2CC(CCN3CC(C(=O)N(C)C)C3)C2)CC[C@]2(CO2)[C@H]1[C@@]1(C)O[C@@H]1CC=C(C)C", "note": "[Example 19, (3R,4S,5S,6R)-5-methoxy-4-((2R,3R)-2-methyl-3-(3-methylbut-2-enyl)oxiran-2-yl)-1-oxaspiro[2.5]octan-6-yl 3-(2-(3-(dimethylcarbamoyl)azetidin-1-yl)ethyl)azetidine-1-carboxylate]", "inhibition in vivo at 0.3 mg/kg": 6.7}, {"smiles": "CO[C@@H]1[C@H](OC(=O)N2CC(CCN3CCNC(=O)C3)C2)CC[C@]2(CO2)[C@H]1[C@@]1(C)O[C@@H]1CC=C(C)C", "note": "[Example 12, (3R,4S,5S,6R)-5-methoxy-4-((2R,3R)-2-methyl-3-(3-methylbut-2-enyl)oxiran-2-yl)-1-oxaspiro[2.5]octan-6-yl 3-(2-(3-oxopiperazin-1-yl)ethyl)azetidine-1-carboxylate]", "inhibition in vivo at 0.3 mg/kg": 1.1}, {"smiles": "CO[C@@H]1[C@H](OC(=O)N2CC(CCN3CCOCC3=O)C2)CC[C@]2(CO2)[C@H]1[C@@]1(C)O[C@@H]1CC=C(C)C", "note": "[Example 39, (3R,4S,5S,6R)-5-methoxy-4-((2R,3R)-2-methyl-3-(3-methylbut-2-enyl)oxiran-2-yl)-1-oxaspiro[2.5]octan-6-yl 3-(2-(3-oxomorpholino)ethyl)azetidine-1-carboxylate]", "inhibition in vivo at 0.3 mg/kg": 1.7}, {"smiles": "CO[C@@H]1[C@H](OC(=O)N2CC[C@@H](CCN3CC(F)(F)C3)C2)CC[C@]2(CO2)[C@H]1[C@@]1(C)O[C@@H]1CC=C(C)C", "note": "[Example 58, (R)-((3R,4S,5S,6R)-5-methoxy-4-((2R,3R)-2-methyl-3-(3-methylbut-2-enyl)oxiran-2-yl)-1-oxaspiro[2.5]octan-6-yl) 3-(2-(3,3-difluoroazetidin-1-yl)ethyl)pyrrolidine-1-carboxylate]", "inhibition in vivo at 0.3 mg/kg": 15.8}, {"smiles": "COC(=O)NC1CN(C(=O)O[C@@H]2CC[C@]3(CO3)[C@@H]([C@@]3(C)O[C@@H]3CC=C(C)C)[C@@H]2OC)C1", "note": "[Example 87, (3R,4S,5S,6R)-5-methoxy-4-((2R,3R)-2-methyl-3-(3-methylbut-2-enyl)oxiran-2-yl)-1-oxaspiro[2.5]octan-6-yl 3-(methoxycarbonylamino)azetidine-1-carboxylate]", "inhibition in vivo at 0.3 mg/kg": 10.9}]}]}
